Activity calls are given as the source filed them. The rule behind the calls is not given here.
What was measured:
Tubulin (Homo sapiens) [1] = molecular target: T1, Tubulin (Homo sapiens) (UniProt P68371+Q9H4B7+P0DPH7+P68366+Q13509+Q71U36+P04350+Q3ZCM7+P07437+P68363+Q9BQE3+Q6PEY2+Q13885+Q9BVA1+Q9BUF5); test: Inhibition of tubulin polymerization (unknown origin) at 10 uM measured for 20 mins in presence of GTP by spectrophotometry analysis; assay type: protein-complex assay
Tubulin (Homo sapiens) [2] = molecular target: T1, Tubulin (Homo sapiens); test: Inhibition of tubulin polymerization (unknown origin) at 10 uM measured for 20 mins in presence of GTP by spectrophotometry analysis relative to control; assay type: protein-complex assay
A549 = test: Antiproliferative activity against human A549 cells assessed as cell growth inhibition incubated for 48 hrs by MTT assay; assay type: functional, cell-based; conditions: A549, 48 h
HeLa = test: Antiproliferative activity against human HeLa cells assessed as cell growth inhibition incubated for 48 hrs by MTT assay; assay type: functional, cell-based
HT-29 = test: Antiproliferative activity against human HT-29 cells assessed as cell growth inhibition incubated for 48 hrs by MTT assay; assay type: functional, cell-based; conditions: HT-29, 48 h
[3] = Antiproliferative activity against human HEK293 cells assessed as cell growth inhibition incubated for 48 hrs by MTT assay; assay type: toxicity, cell-based
MDA-MB-231 = test: Antiproliferative activity against human MDA-MB-231 cells assessed as cell growth inhibition incubated for 48 hrs by MTT assay; assay type: functional, cell-based; conditions: MDA-MB-231, 48 h

Structure (SMILES)	IC50 (HT-29) [µM]	further results
CC(=O)O[C@H]1C(=O)[C@@]2(C)[C@H]([C@H](OC(=O)c3ccccc3)[C@]3(O)C[C@H](OC(=O)[C@H](O)[C@@H](NC(=O)c4ccccc4)c4ccccc4)C(C)=C1C3(C)C)[C@]1(OC(C)=O)CO[C@@H]1C[C@@H]2O		inhibition (Tubulin (Homo sapiens) [1]): inactive
COc1cc(Cc2nnc3n2N=C(c2ccc(F)cc2)CS3)cc(OC)c1OC	> 50	
COc1cccc(C2=Nn3c(Cc4cc(OC)c(OC)c(OC)c4)nnc3SC2)c1	32	
COc1cc(Cc2nnc3n2N=C(c2ccccc2F)CS3)cc(OC)c1OC	44.6	
COc1ccc(C2=Nn3c(Cc4cc(OC)c(OC)c(OC)c4)nnc3SC2)cc1O	9.69	
COc1cc(Cc2nnc3n2N=C(c2ccc(Cl)cc2)CS3)cc(OC)c1OC	1.02	inhibition (Tubulin (Homo sapiens) [2]): 30%; IC50 (A549): 5.77 µM; IC50 (HeLa): 1.33 µM; IC50 at 48 h [3]: > 100 µM; IC50 (MDA-MB-231): 4.63 µM
COc1cc(Cc2nnc3n2N=C(c2ccccc2)CS3)cc(OC)c1OC	> 50	
COc1cc(Cc2nnc3n2N=C(c2ccc(Br)cc2)CS3)cc(OC)c1OC	43.6	
COc1cc(Cc2nnc3n2N=C(c2ccc(C(F)(F)F)cc2)CS3)cc(OC)c1OC	5.03	
COc1ccc(Cc2nnc(SCC(=O)c3ccc(C)cc3)n2N)c(OC)c1OC	0.62	IC50 (A549): 11.8 µM; IC50 (HeLa): 9.02 µM; IC50 at 48 h [3]: > 100 µM; IC50 (MDA-MB-231): > 50 µM
COc1cc(Cc2nnc3n2N=C(c2cccs2)CS3)cc(OC)c1OC	> 50	
COc1ccc(C2=Nn3c(Cc4cc(OC)c(OC)c(OC)c4)nnc3SC2)cc1N	> 50	
COc1ccc(/C=C\c2cc(OC)c(OC)c(OC)c2)cc1O [COMBRETASTATIN A4]	1.18	IC50 (HeLa): 0.043 µM; IC50 (MDA-MB-231): 0.077 µM
COc1cc(Cc2nnc3n2N=C(c2ccc(N(C)C)cc2)CS3)cc(OC)c1OC	35.2	
COc1cc(Cc2nnc3n2N=C(c2ccc(-c4ccccc4)cc2)CS3)cc(OC)c1OC	> 50	
COc1cc(Cc2nnc3n2N=C(c2ccc([N+](=O)[O-])cc2)CS3)cc(OC)c1OC	> 50	
COc1ccc(C2=Nn3c(Cc4cc(OC)c(OC)c(OC)c4)nnc3SC2)cc1	42.8	
COc1ccc(C2=Nn3c(Cc4cc(OC)c(OC)c(OC)c4)nnc3SC2)cc1[N+](=O)[O-]	49.2	

More lines, main results first:

IC50 (HT-29) [µM]	Structure (SMILES)	further results
0.46	COc1cc(OCc2nnc3n2N=C(c2ccc(C)cc2)CS3)cc(OC)c1OC	inhibition (Tubulin (Homo sapiens) [2]): 11%; IC50 (A549): 30.6 µM; IC50 (HeLa): > 50 µM; IC50 at 48 h [3]: > 100 µM; IC50 (MDA-MB-231): 12.8 µM
> 50	COc1cc(OCc2nnc3n2N=C(c2ccc(C(F)(F)F)cc2)CS3)cc(OC)c1OC	
> 50	COc1ccc(C2=Nn3c(COc4cc(OC)c(OC)c(OC)c4)nnc3SC2)cc1OC	
> 50	COc1cc(OCc2nnc3n2N=C(c2ccc(N)cc2)CS3)cc(OC)c1OC	
> 50	COc1ccc(C2=Nn3c(COc4cc(OC)c(OC)c(OC)c4)nnc3SC2)cc1[N+](=O)[O-]	
> 50	COc1ccc(C2=Nn3c(COc4cc(OC)c(OC)c(OC)c4)nnc3SC2)cc1F	
0.41	COc1cc(OCc2nnc3n2N=C(c2ccc(N(C)C)cc2)CS3)cc(OC)c1OC	inhibition (Tubulin (Homo sapiens) [2]): 12%; IC50 (A549): > 50 µM; IC50 (HeLa): 2.2 µM; IC50 at 48 h [3]: > 100 µM; IC50 (MDA-MB-231): 9.73 µM
48.1	COc1cc(OCc2nnc3n2N=C(c2ccc(Cl)c(Cl)c2)CS3)cc(OC)c1OC	
4.93	COc1ccc(C2=Nn3c(COc4cc(OC)c(OC)c(OC)c4)nnc3SC2)cc1N	
36.4	COc1ccc(C2=Nn3c(COc4cc(OC)c(OC)c(OC)c4)nnc3SC2)cc1O	
> 50	COc1cc(OCc2nnc3n2N=C(c2ccc(SC)cc2)CS3)cc(OC)c1OC	
26.2	COc1ccc(C2=Nn3c(COc4cc(OC)c(OC)c(OC)c4)nnc3SC2)cc1OC(C)=O	

From ChEMBL document CHEMBL5370538, “Discovery of novel 6-p-tolyl-3-(3,4,5-trimethoxybenzyl)-7H-[1,2,4]triazolo[3,4-b][1,3,4]thiadiazine derivative as a potent tubulin inhibitor with promising in vivo antitumor activity” (Eur J Med Chem, 2023)
